Where only a bound is given, the exact number is not on record here.

From patent publication US20220054643A1, “SAPONIN CONJUGATED TO EPITOPE-BINDING PROTEINS” (priority 2018, published 2022) come the findings set out here.

The test system of one series is HER14 cells. Put plainly: viability assay (MTT) with HER14 cells. Format: cell-based. The note with it: 0.1 nM dianthin-EGF in the presence of SA1641. The method, then:
To test the efficacy of the invention, we conducted a viability assay with HER14 cells. These cells are fibroblasts stably transfected with the human epidermal growth factor receptor and therefore target cells for the targeted toxin dianthin-EGF. HER14 cells (2,000 cells/100 μL/well) were seeded into wells of 96-well-cell culture plates and incubated for 24 h in DMEM medium supplemented with 10% fetal calf serum and 1% penicillin/streptomycin at 37° C., 5% CO2 and 98% humidity. The different test substances (see results and FIG. 59) were then added in triplicates in a volume of 25 μL and supplemented with further 25 μL of medium. After an incubation of 72 h, 30 μL 3-(4,5-dimethylthiazol-2-yl)-2,5-diphenyltetrazolium bromide (0.5 mg/mL in water) was added per well and incubated for 2 h. Thereafter, the medium was carefully removed and replaced by an aqueous solution containing 10% (v/v) isopropanol, 5% (w/v) sodium dodecyl sulfate and 400 mM HCl, and incubated for 5 min. Solubilized formazan was photometrically quantitated at […] in a microplate reader (Spectra MAX 340 PC, Molecular Devices, Sunnyvale, Calif., USA). Untreated cells were normalized to 1 and all samples referred to the untreated control. Significance was determined by unpaired two-sample t-tests.

For another series, the system named is HeLa cells. Put plainly: cell viability assay (MTS). The note with it: for concentration above which toxicity is seen as single compound: without EGFdianthin. Format: cell-based, human.
The subject of series [1] is SK-BR-3, JIMT-1, MDA-MB-468, A431, CaSki, HeLa, A2058. The series can be described thus: control treatments, relative cell viability on various cancer cell lines. Format: cell-based, human. The note with it: wide range of concentrations, up to 100.000 pM.
Experimental: (§1) After treatment the cells were incubated for 72 hr at 37° C. before the cell viability was determined by a MTS-assay, performed according to the manufacturer's instruction (CellTiter 96® AQueous One Solution Cell Proliferation Assay, Promega). Briefly, the MTS solution was diluted 20× in DMEM without phenol red (PAN-Biotech GmbH) supplemented with 10% FBS (PAN-Biotech GmbH). The cells were washed once with 200 μL PBS per well, after which 100 μL diluted MTS solution was added per well.
(§2) The plate was incubated for approximately 20-30 minutes at 37° C. Subsequently, the optical density at 492 nm was measured on a Thermo Scientific Multiskan FC plate reader (Thermo Scientific). For quantification the background signal of ‘medium only’ wells was subtracted from all other wells, before the ratio of untreated/treated cells was calculated, by dividing the background corrected signal of untreated wells over the background corrected signal of the treated wells.
The next series has as its system A431 cells. Type of series: cell-based, human. To be noted: without EGFdianthin.
Another series relates to A2058 cells. Put plainly: cell viability assay (MTS). Format: cell-based, human. The note with it: without EGFdianthin.
Series [2] in a line: pH dependent hydrolysis of the hydrazone bond (MALDI-TOF-MS). The note with it: HCl solution at pH 3; MALDI-TOF-MS at two points in time. Type of series: physicochemical.

Experimental for A2058 cells: as §1, §2
Experimental for A431 cells: as §1, §2
Experimental for HeLa cells: as §1, §2

For the molecule `C[C@@H]1O[C@@H](O[C@H]2[C@H](OC(=O)[C@]34CCC(C)(C)C[C@H]3C3=CC[C@@H]5[C@@]6(C)CC[C@H](O[C@H]7O[C@H](C(=O)O)[C@@H](O)[C@H](O[C@@H]8OC[C@@H](O)[C@H](O)[C@H]8O)[C@H]7O[C@@H]7O[C@H](CO)[C@H](O)[C@H](O)[C@H]7O)[C@@](C)(C=O)[C@@H]6CC[C@@]5(C)[C@]3(C)CC4)O[C@H](C)[C@H](O[C@@H]3O[C@H](C)[C@@H](O)[C@H](O)[C@H]3O)[C@@H]2O)[C@H](O)[C@H](O)[C@H]1O[C@@H]1OC[C@@H](O)[C@H](O[C@@H]2OC[C@@H](O)[C@H](O)[C@H]2O)[C@H]1O` [SA1641], the cell viability entry with HER14 cells is “death of all cells”.

`CCN(CC)CCCC(C)Nc1ccnc2cc(Cl)ccc12` (stereo not shown) [chloroquine, reference compound]: in the series with HeLa cells (SO1861 + dianthin-EGF + 500 nM chloroquine / 500 nM PAMAM (native, thiolated, PEGylated) / 667 nM dendron), the “effect on SO1861-mediated endosomal escape of dianthin-EGF and cell killing” value was “inhibit the SO1861-mediated endosomal escape”.

As for saporin, the “influence on relative cell viability” value in series [1] is given as “do not or hardly have any influence on cell viability”.

With `CC(=O)OC1C(C)OC(OC2C(C)OC(OC(=O)[C@]34CCC(C)(C)CC3C3=CCC5[C@@]6(C)CC[C@H](OC7OC(C(=O)O)C(O)C(OC8OCC(O)C(O)C8O)C7OC7OC(CO)C(O)C(O)C7O)[C@@](C)(C=O)C6CC[C@@]5(C)[C@]3(C)C[C@H]4O)C(OC3OC(C)C(OC4OCC(O)C(OC5OC(CO)C(O)C(O)C5O)C4O)C(O)C3O)C2O)C(O)C1OC1OCC(O)C(O)C1O` (stereo partly shown) [SO1861], the “concentration above which toxicity is seen as single compound” value in the series with A431 cells, in the series with A2058 cells and in the series on HeLa cells was “strong cell viability reduction” in each case.

Regarding `CC(=O)OC1C(C)OC(OC2C(C)OC(OC(=O)[C@]34CCC(C)(C)CC3C3=CCC5[C@@]6(C)CC[C@H](OC7OC(C(=O)O)C(O)C(OC8OCC(O)C(O)C8O)C7OC7OC(CO)C(O)C(O)C7O)[C@@](C)(/C=N/NC(=O)CCCCCN7C(=O)C=CC7=O)C6CC[C@@]5(C)[C@]3(C)C[C@H]4O)C(OC3OC(C)C(OC4OCC(O)C(OC5OC(CO)C(O)C(O)C5O)C4O)C(O)C3O)C2O)C(O)C1OC1OCC(O)C(O)C1O` (stereo partly shown) [SO1861-EMCH], the “concentration above which toxicity is seen as single compound” value in the series with A431 cells, in the series on A2058 cells and with HeLa cells was greater than 25.000 nM each time. Besides, in series [2], the “hydrolysis of the hydrazone bond” value is on record as “gets cleaved”.
